target: T1, LRRK2 (Homo sapiens, UniProt Q5S007, G2019S); experiment: In Vitro LRRK2 LabChip Assay (LRRK2 Ki); assay type: biochemical; conditions: Table 5 compounds (formula I)
T1 construct: purchased Invitrogen PV4882
Protocol: In Vitro LRRK2 LabChip Assay
This assay was used to determine a compound's potency in inhibiting activity of LRRK2 by determining, Kiapp, IC50, or percent inhibition values. In a polypropylene plate, LRRK2, fluorescently-labeled peptide substrate, ATP and test compound were incubated together. Using a LabChip 3000 (Caliper Life Sciences), after the reaction the substrate was separated by capillary electrophoresis into two populations: phosphorylated and unphosphorylated. The relative amounts of each were quantitated by fluorescence intensity. LRRK2 Ki was determined according to the equation: Y=V0*(1−((x+Ki*(1+S/Km)+Et)/(2*Et)−(((x+Ki*(1+S/Km)+Et)^2−(4*Et*x))^0.5)/(2*Et))). Ki values in Table 4 and elsewhere herein are shown in μM.
Assay conditions and materials used were as follows:
LRRK2 Wild type in 5 mM MgCl2: 15 nM (Invitrogen lot #500607F)
Kinase reaction time: 2 hours
Wild type in 5 mM MgCl2: 80 μM
Solid Support: Black 50 μL volume polypropylene 384 well plate (MatriCal cat # MP101-1-PP)
Kinase: LRRK2 G2019S (Invitrogen cat #PV4882). • LRRK2 Wild type (Invitrogen cat #PV4874).
Substrate: 5FAM-[…]-CONH2
Non-binding plate: 384 well clear V-bottom polypropylene plates (Greiner cat #781280).
ATP: 10 mM ATP (Cell Signaling cat #9804).
Coating Reagent #3: Coating Reagent #3 (Caliper).
Complete Reaction Buffer: H2O/25 mM Tris, pH 8.0/5 mM MgCl2/2 mM DTT/0.01% Triton X-100.
Stop Solution: H2O/100 mM HEPES, pH 7.2/0.015% Brij-35/0.2% Coating Reagent #3/20 mM EDTA.
Separation Buffer: H2O/100 mM HEPES, pH 7.2/0.015% Brij-35/0.1% Coating Reagent #3/1:200 Coating Reagent #8/10 mM EDTA/5% DMSO.
Compound Plate Preparation:
For serial dilutions, 34.6 μl DMSO was added to columns 3-24. For the assay controls, 37.5 μl DMSO was added to columns 1 and 2 of rows A and P. a, d and 50 μl 25 μM G-028831 (Staurosporine) was added to columns 1 and 2, row B. For the samples: to start at 100 μM, 37.5 μl DMSO was to columns 1 and 2, then 12.5 μl 10 mM compound; to start at 10 μM, 78 μl DMSO was added to columns 1 & 2, then 2 μl 10 mM compound; and to start at 1 μM, 25 μM compound (2 μl 10 mM cmpd+798 μl DMSO) was added to empty columns 1 and 2. A Precision instrument was used to perform 1:3.16 serial dilutions (“PLK_BM_serial_halflog”).
ATP was diluted to 282.1 μM in Complete Kinase Buffer (final concentration was 130 μM).
Total and Blank Preparation:
In Complete Reaction Buffer, substrate was diluted to 4 μM. Equal volumes of Complete Reaction Buffer and 4 μM substrate were combined to obtain the blank. Equal volumes of Complete Reaction Buffer and 4 μM substrate were combined and to the combined solution was added 2× final LRRK2 concentration.
To a 50 μl polypropylene plate, 5 μl/well buffer/substrate was added by hand to Blank wells. A Biomek FX was used to start the kinase reaction (“PLK SAR 23 ATP”). The following were added to the appropriate wells:
5 μl/well compound/ATP in Assay Plate;
5 μl/well kinase/substrate in Assay Plate;
The plate was incubated for 2 hours in the dark. Biomek FX was used to stop the kinase reaction (“PLK Stop”), and 10 μl/well Stop solution was added to the Assay Plate. Results were read on the LabChip 3000.
The LabChip 3000 was run using the job “LRRK2 IC50” with the following job settings:
Downstream voltage: −500 V
Upstream voltage: −2350 V
Post sample buffer sip time: 75 seconds
Post dye buffer sip time: 75 seconds
Final delay time: 200 seconds

T1 sequence (Q5S007 whole entry G2019S): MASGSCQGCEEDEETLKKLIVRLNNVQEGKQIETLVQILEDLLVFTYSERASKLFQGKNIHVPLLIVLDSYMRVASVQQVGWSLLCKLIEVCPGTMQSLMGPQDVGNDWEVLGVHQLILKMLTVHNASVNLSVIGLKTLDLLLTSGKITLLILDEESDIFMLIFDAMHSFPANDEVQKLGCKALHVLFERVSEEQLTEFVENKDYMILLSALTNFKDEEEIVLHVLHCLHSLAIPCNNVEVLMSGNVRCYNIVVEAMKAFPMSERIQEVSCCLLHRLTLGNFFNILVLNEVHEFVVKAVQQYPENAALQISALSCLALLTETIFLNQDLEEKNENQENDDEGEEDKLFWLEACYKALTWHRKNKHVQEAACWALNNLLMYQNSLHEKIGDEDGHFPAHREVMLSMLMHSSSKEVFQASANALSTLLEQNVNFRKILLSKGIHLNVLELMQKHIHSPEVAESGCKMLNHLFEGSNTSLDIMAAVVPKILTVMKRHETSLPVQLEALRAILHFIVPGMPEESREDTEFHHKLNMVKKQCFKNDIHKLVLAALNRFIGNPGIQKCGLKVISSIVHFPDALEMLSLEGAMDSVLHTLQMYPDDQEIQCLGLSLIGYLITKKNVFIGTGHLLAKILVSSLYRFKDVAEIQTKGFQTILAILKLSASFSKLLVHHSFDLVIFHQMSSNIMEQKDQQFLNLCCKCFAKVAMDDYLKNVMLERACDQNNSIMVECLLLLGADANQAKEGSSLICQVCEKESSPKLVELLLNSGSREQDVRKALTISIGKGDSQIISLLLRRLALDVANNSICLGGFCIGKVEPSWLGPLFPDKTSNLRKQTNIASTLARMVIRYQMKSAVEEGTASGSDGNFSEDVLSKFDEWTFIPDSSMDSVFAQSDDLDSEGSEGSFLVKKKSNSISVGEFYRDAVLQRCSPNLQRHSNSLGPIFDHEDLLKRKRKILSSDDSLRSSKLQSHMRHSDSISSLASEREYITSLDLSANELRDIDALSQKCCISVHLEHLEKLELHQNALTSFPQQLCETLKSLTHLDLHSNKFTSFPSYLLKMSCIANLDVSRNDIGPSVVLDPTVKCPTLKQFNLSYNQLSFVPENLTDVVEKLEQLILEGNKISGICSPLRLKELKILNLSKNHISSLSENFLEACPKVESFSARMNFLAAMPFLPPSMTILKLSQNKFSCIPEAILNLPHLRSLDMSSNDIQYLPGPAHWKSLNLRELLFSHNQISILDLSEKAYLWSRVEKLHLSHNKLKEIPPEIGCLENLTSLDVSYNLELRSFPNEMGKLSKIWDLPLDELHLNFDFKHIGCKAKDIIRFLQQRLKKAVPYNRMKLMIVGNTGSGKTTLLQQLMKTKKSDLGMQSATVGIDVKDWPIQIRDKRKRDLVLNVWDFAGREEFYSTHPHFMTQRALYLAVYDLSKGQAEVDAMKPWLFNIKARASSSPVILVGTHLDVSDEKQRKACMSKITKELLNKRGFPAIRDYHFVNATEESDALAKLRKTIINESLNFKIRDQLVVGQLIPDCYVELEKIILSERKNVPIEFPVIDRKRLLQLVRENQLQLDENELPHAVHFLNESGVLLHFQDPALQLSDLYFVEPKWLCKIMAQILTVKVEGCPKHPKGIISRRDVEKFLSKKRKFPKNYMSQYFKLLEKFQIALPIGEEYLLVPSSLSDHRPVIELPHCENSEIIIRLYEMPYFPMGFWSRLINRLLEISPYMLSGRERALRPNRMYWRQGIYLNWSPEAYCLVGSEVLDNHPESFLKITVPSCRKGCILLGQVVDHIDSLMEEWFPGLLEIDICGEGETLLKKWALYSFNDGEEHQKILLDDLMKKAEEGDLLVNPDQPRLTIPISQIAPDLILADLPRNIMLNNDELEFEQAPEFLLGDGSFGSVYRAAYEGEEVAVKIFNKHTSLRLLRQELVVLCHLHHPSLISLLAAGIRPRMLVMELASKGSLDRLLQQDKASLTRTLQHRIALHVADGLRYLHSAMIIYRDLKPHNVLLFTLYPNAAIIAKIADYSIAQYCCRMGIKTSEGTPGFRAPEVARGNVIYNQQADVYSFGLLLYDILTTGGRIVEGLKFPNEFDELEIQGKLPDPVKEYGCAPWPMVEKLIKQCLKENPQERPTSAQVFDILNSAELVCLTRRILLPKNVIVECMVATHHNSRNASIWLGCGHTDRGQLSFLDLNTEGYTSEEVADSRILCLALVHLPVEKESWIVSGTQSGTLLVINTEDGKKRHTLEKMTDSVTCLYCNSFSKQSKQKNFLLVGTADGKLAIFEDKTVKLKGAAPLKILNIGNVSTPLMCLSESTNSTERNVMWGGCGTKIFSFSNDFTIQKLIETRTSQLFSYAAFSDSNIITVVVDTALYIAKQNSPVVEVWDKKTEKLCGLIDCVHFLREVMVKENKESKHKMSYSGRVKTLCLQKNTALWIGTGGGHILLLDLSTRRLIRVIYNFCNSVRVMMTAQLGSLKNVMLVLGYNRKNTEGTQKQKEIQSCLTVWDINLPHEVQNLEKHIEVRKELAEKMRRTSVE

Ki [nM]	SMILES
2.02	CCNc1nc(Nc2cc(F)c(C(=O)N3CCOCC3)cc2OCCF)ncc1C(F)(F)F [Compound 49, [4-(4-Ethylamino-5-trifluoromethyl-pyrimidin-2-ylamino)-2-fluoro-5-(2-fluoro-ethoxy)-phenyl]-morpholin-4-yl-methanone]
33.3	COc1cc(C(=O)N2CCOCC2)c(F)cc1Nc1ncc(C(F)(F)F)c(OC)n1 [Compound 50, [2-Fluoro-5-methoxy-4-(4-methoxy-5-trifluoromethyl-pyrimidin-2-ylamino)-phenyl]-morpholin-4-yl-methanone]
2.28	O=C(c1ccc(Nc2ncc(C(F)(F)F)c(NC3CC3)n2)c(F)c1F)N1CCOCC1 [Compound 51, [4-(4-Cyclopropylamino-5-trifluoromethyl-pyrimidin-2-ylamino)-2,3-difluoro-phenyl]-morpholin-4-yl-methanone]
3.35	O=C(c1cc(F)c(Nc2ncc(C(F)(F)F)c(NC3CC3)n2)cc1F)N1CCOCC1 [Compound 52, [4-(4-Cyclopropylamino-5-trifluoromethyl-pyrimidin-2-ylamino)-2,5-difluoro-phenyl]-morpholin-4-yl-methanone]
19.6	CNc1nc(Nc2cc(Cl)c(C(=O)N3CCOCC3)cc2F)ncc1C(F)(F)F [Compound 53, [2-Chloro-5-fluoro-4-(4-methylamino-5-trifluoromethyl-pyrimidin-2-ylamino)-phenyl]-morpholin-4-yl-methanone]
82.5	CCNc1nc(Nc2ccc(C(=O)N3CC[C@H](F)C3)cc2OC)ncc1C#N [Compound 54, 4-Ethylamino-2-[4-((S)-3-fluoro-pyrrolidine-1-carbonyl)-2-methoxy-phenylamino]-pyrimidine-5-carbonitrile]
14.5	CNc1nc(Nc2cc(OC)c(C(=O)N(C)c3cnn(C)c3)cc2Cl)ncc1C(F)(F)F [Compound 55, 5-Chloro-2-methoxy-N-methyl-4-(4-methylamino-5-trifluoromethyl-pyrimidin-2-ylamino)-N-(1-methyl-1H-pyrazol-4-yl)-benzamide]
1.13	CCNc1nc(Nc2cc(OC)c(C(=O)N3CCC(F)(F)C3)cc2OC)ncc1C(F)(F)F [Compound 56, (3,3-Difluoro-pyrrolidin-1-yl)-[4-(4-ethylamino-5-trifluoromethyl-pyrimidin-2-ylamino)-2,5-dimethoxy-phenyl]-methanone]
14.5	COc1nc(Nc2ccc(C(=O)N3CCOCC3)cc2OCCF)ncc1Cl [Compound 57, [4-(5-Chloro-4-methoxy-pyrimidin-2-ylamino)-3-(2-fluoro-ethoxy)-phenyl]-morpholin-4-yl-methanone]
5.63	CNc1nc(Nc2cc(OC)c(C(=O)N3CCOCC3)cc2C)ncc1C(F)(F)F [Compound 58, [2-Methoxy-5-methyl-4-(4-methylamino-5-trifluoromethyl-pyrimidin-2-ylamino)-phenyl]-morpholin-4-yl-methanone]
4.31	CCNc1nc(Nc2cc(Cl)c(C(=O)N3CCOCC3)cc2F)ncc1C(F)(F)F [Compound 59, [2-Chloro-4-(4-ethylamino-5-trifluoromethyl-pyrimidin-2-ylamino)-5-fluoro-phenyl]-morpholin-4-yl-methanone]
14.2	CNc1nc(Nc2ccc(C(=O)N3CCOCC3)c(F)c2Cl)ncc1C(F)(F)F [Compound 60, [3-Chloro-2-fluoro-4-(4-methylamino-5-trifluoromethyl-pyrimidin-2-ylamino)-phenyl]-morpholin-4-yl-methanone]
1.03	CCNc1nc(Nc2cc(OC)c(C(=O)N3CCC(F)(F)C3)cc2OCCF)ncc1C(F)(F)F [Compound 61, (3,3-Difluoro-pyrrolidin-1-yl)-[4-(4-ethylamino-5-trifluoromethyl-pyrimidin-2-ylamino)-5-(2-fluoro-ethoxy)-2-methoxy-phenyl]-methanone]
9.08	CCNc1nc(Nc2cc(F)c(C(=O)N3CCOCC3)c(F)c2OC)ncc1C(F)(F)F [Compound 62, [4-(4-Ethylamino-5-trifluoromethyl-pyrimidin-2-ylamino)-2,6-difluoro-3-methoxy-phenyl]-morpholin-4-yl-methanone]

Reference: patent publication US8809331B2 (Genentech, Inc., priority 2011, dated 2014)
